Laboratory results reported in US9968694B2, “Compositions and methods for non-invasive imaging” (MERRIMACK PHARMACEUTICALS, INC., priority 2012, dated 2018).
Where two headings read alike, the source gives them in different places. One block for each molecule: values may come before it.

Tests used:
[1] = Cu complex formation in HS buffer (appearance, precipitation); assay type: physicochemical; conditions: 0.1 mM chelator and Cu in HS buffer pH 6.5
Procedure: Cu:4-DEAP-ATSC and Cu:ATSM complexes were formed as follows. In 1 mL HS were added 5 μL of 20 mM CuSO4 and 5 μl of 20 mM 4-DEAP-ATSC (in DMSO) or 5 μL of 20 mM ATSM (in DMSO). […] The chelator and Cu concentration was 0.1 mM.

[2] = Storage stability of 4-DEAP-ATSC formulations (degradation); assay type: physicochemical
Procedure: Various 4-DEAP-ATSC formulations (see Table 10 below) were stored under different conditions. At designated time points, samples were collected where their storage stability were evaluated by functional readouts.
4-DEAP-ATSC was formulated in citrate buffer in a range of pH (pH 4-7). […] At a pH of between 6 and 7, the rates of degradation were very similar, with less than 15% degradation observed over a 4-month period when stored at −20° C. or 4° C.
4-DEAP-ATSC formulated in citrate buffer was stored at 4 different temperatures (−20° C., 4° C., 30° C., and 37° C.). […] (>60%) over a 1-month period. On the other hand, 4-DEAP-ATSC formulations stored at −20° C. and 4° C. can be stably preserved with less than 15% of degradation detected over a period of 4 months.
Various 4-DEAP-ATSC formulations were lyophilized and stored under different conditions to study the effect of lyophilization on their storage stability. […] In addition, mannitol was added to the formulation to serve as a bulking agent for lyophilization.
A set of 4-DEAP-ATSC formulations was filled with argon as an alternative means to improve storage stability of the liquid formulations. […] Significant degradation was still detected in formulations stored at elevated temperatures (30° C. and 37° C.). Additionally, storage stability of inert gas-filled lyophilized formulations was similar to air-filled lyophilized formulations (FIG. 19F).

[3] = Efficiency of ^64Cu:4-DEAP-ATSC loading into liposomes, size exclusion chromatography; assay type: physicochemical
Procedure: The efficiency of liposome loading for Step 2 (see FIG. 3) was determined. […] Encapsulated (liposomal) radioactivity was separated from total radioactivity using size exclusion chromatography. From this it was determined that >90% of the ^64Cu was loaded into the liposome at 4-DEAP-ATSC:lipid ratios <2 mol % as shown in Table 2.

[4] = ^64Cu chelation efficiency of 4-DEAP-ATSC by instant thin layer chromatography (ITLC); assay type: physicochemical
Excerpt: […] An instant thin layer chromatography (ITLC) assay was used for quantifying the fractions of uncomplexed ^64Cu and ^64Cu(II)-4-DEAP-ATSC complex in the chelation mixture. The uncomplexed ^64Cu can be detected at the solvent front, while the ^64Cu(II)-4-DEAP-ATSC complex remained at the origin where the sample is spotted.

[5] = over several weeks, cited from earlier work

Structure (SMILES): CNC(=S)NN=C(C)C(C)=NNC(=S)NC [ATSM, diacetyl 4-methylthiosemicarbazone, reference compound]
appearance of Cu complex sample [1]: became turbid and developed a brown precipitate

degradation ([2]; citrate buffer pH between 6 and 7, 4-month period, stored at −20° C. or 4° C.): less than 15%
degradation ([2]; citrate buffer, stored at 30° C. and 37° C., 1-month period): > 60%
degradation ([2]; citrate buffer, stored at −20° C. and 4° C., period of 4 months): less than 15%
effect of inert gas atmosphere on storage stability ([2]; liquid formulations filled with argon): did not improve storage stability
effect of lyophilization on storage stability ([2]; lyophilized formulations): effective method to inhibit degradation
effect of mannitol on storage stability ([2]; mannitol as bulking agent for lyophilization): no effect on the storage stability
^64Cu Loading Efficiency ([3]; 4-DEAP-ATSC:Lipid Ratio 0.01% (mol %)): 96-98%
^64Cu Loading Efficiency ([3]; 4-DEAP-ATSC:Lipid Ratio 0.04% (mol %)): 96-98%
^64Cu Loading Efficiency ([3]; 4-DEAP-ATSC:Lipid Ratio 0.10% (mol %)): 95-97%
^64Cu Loading Efficiency ([3]; 4-DEAP-ATSC:Lipid Ratio 0.15% (mol %)): 92-97%
^64Cu Loading Efficiency ([3]; 4-DEAP-ATSC:Lipid Ratio 0.25% (mol %)): 92-97%
^64Cu Loading Efficiency ([3]; 4-DEAP-ATSC:Lipid Ratio 0.40% (mol %)): 94-98%
^64Cu Loading Efficiency ([3]; 4-DEAP-ATSC:Lipid Ratio 0.50% (mol %)): 92-96%
^64Cu Loading Efficiency ([3]; 4-DEAP-ATSC:Lipid Ratio 0.67% (mol %)): 96%
^64Cu Loading Efficiency ([3]; 4-DEAP-ATSC:Lipid Ratio 0.75% (mol %)): 92%
^64Cu Loading Efficiency ([3]; 4-DEAP-ATSC:Lipid Ratio 1% (mol %)): 93-98%
^64Cu Loading Efficiency ([3]; 4-DEAP-ATSC:Lipid Ratio 2% (mol %)): 91-97%
^64Cu Loading Efficiency ([3]; 4-DEAP-ATSC:Lipid Ratio 4.20% (mol %)): 86%
^64Cu Loading Efficiency ([3]; 4-DEAP-ATSC:Lipid Ratio 5.00% (mol %)): 92-93%
^64Cu Loading Efficiency ([3]; 4-DEAP-ATSC:Lipid Ratio 10% (mol %)): 82-92%
^64Cu Loading Efficiency ([3]; 4-DEAP-ATSC:Lipid Ratio 25% (mol %)): 90%
^64Cu Loading Efficiency ([3]; 4-DEAP-ATSC:Lipid Ratio 50% (mol %)): 71%
^64Cu loaded into the liposome ([3]; 4-DEAP-ATSC:lipid ratios <2 mol %): > 90%
Chelation Efficiency ([4]; Specific Radioactivity 0.01 mCi/nmol): 11-46%
Chelation Efficiency ([4]; Specific Radioactivity 0.04 mCi/nmol): 98%
Chelation Efficiency ([4]; Specific Radioactivity 0.07 mCi/nmol): 68-97%
Chelation Efficiency ([4]; Specific Radioactivity 0.08 mCi/nmol): 99%
Chelation Efficiency ([4]; Specific Radioactivity 0.09 mCi/nmol): 99%
Chelation Efficiency ([4]; Specific Radioactivity 0.1 mCi/nmol): 99-100%
Chelation Efficiency ([4]; Specific Radioactivity 0.15 mCi/nmol): 98-99%
Chelation Efficiency ([4]; Specific Radioactivity 0.17 mCi/nmol): 96%
Chelation Efficiency ([4]; Specific Radioactivity 0.18 mCi/nmol): 94%
Chelation Efficiency ([4]; Specific Radioactivity 0.2 mCi/nmol): 96-99%
Chelation Efficiency ([4]; Specific Radioactivity 0.3 mCi/nmol): 98%
Chelation Efficiency ([4]; Specific Radioactivity 0.65 mCi/nmol): 99%
Chelation Efficiency ([4]; Specific Radioactivity 13.1 mCi/nmol): 99%
efficiency of chelation ([4]; specific radioactivities ranging from 0.07-0.3 mCi/nmol): 94-99%
Structure (SMILES): CCN(CC)CCCNC(=S)NN=C(C)C(C)=NNC(=S)NCCCN(CC)CC [Sample 4-DEAP-ATSC, diacetyl 4,4′bis (3-(N,N-diethylamino)propyl)thiosemicarbazone]
appearance of Cu complex sample [1]: remained clear, without any signs of precipitation

Structure (SMILES): [Cu] [copper]
Toxic dose levels ([5]; 65 kg adult): ~154 µg/kg
Toxic dose levels [5]: > 10 mg/person/day
